Here are results for 16 compounds from US20250320213A1, “Nitrogen-Containing Heterocyclic Compounds” (Pfizer Inc., priority 2024, published 2025).

One experiment deals with T1, STAT6 (Homo sapiens, UniProt P42226).
T1 construct: stably transfected HaCaT keratinocyte cell line, which expresses NanoLuc luciferase reporter gene under the transcriptional control of the STAT6 responsive promoter; endogenous in cells; host or cells: HaCaT keratinocyte reporter cell line (stably transfected with a NanoLuc reporter)
T1 sequence (P42226 1-847): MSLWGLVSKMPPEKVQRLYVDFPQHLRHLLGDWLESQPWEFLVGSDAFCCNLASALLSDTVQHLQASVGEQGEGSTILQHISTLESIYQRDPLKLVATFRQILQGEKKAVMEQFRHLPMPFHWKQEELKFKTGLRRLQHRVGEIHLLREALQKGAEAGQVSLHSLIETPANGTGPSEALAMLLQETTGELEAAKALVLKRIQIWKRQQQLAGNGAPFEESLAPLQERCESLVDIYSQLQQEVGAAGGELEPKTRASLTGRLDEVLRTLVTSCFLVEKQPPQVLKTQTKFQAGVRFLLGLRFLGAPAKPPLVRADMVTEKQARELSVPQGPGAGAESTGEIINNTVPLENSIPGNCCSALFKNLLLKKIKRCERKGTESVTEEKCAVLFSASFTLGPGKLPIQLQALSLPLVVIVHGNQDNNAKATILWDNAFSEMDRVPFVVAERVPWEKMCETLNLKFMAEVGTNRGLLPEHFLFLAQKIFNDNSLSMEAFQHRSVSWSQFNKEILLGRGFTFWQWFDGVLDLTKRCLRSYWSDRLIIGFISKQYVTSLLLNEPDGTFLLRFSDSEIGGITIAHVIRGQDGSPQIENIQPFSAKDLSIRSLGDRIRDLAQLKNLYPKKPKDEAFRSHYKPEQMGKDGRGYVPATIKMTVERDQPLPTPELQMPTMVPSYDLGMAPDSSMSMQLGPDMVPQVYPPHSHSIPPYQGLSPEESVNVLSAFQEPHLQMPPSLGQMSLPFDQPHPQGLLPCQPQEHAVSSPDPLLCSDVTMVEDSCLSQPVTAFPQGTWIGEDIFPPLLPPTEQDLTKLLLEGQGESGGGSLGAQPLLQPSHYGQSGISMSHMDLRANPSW
Kind of experiment: STAT6 Reporter Luciferase Assay (IL-13 stimulated HaCaT keratinocyte NanoLuc reporter cells). Type of experiment: cell-based. Particulars: IL-13 stimulated HaCaT STAT6 NanoLuc reporter cells; read-out: Reporter EC50. The gist of the method: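 HaCaT IL-13Ra2-promoter NanoLuc reporter; cpd 2 h 37 °C in DMEM/2% HI FBS; IL-13 0.12 nM final, 4 h; Nano-Glo luminescence.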

The subject of experiment [1] is CCL17 secretion in peripheral human whole blood. Description: Human Whole Blood (HWB) CCL17 TR-FRET Assay (IL-13 stimulated CCL17 secretion). Type of experiment: cell-based. Particulars: Homo sapiens, 48 h, human whole blood. The gist of the method: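 IC50 values reflect inhibition of IL-13-driven CCL17 release in human whole blood. Blood was preincubated with compound 2 h, stimulated 48 h at 37 °C with IL-13 (10 ng/mL final), and serum CCL17 was measured by TR-FRET.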

As usually defined, the EC50 is the concentration giving half of the maximal effect. Broadly, the IC50 is the concentration that gives 50% inhibition. Read a low IC50 as greater potency. Turning to `CC(C)n1nc(C(=O)NCc2ccc(NC(=O)N(C)C)cc2)c2c1[C@@H](C)CN(c1ccc(C(=O)N(C)CC3CCNCC3)cc1)C2` [Example 637, (S)-N-(4-(3,3-dimethylureido)benzyl)-1-isopropyl-7-methyl-5-(4-(methyl(piperidin-4-ylmethyl)carbamoyl)phenyl)-4,5,6,7-tetrahydro-1H-pyrazolo[4,3-c]pyridine-3-carboxamide], the EC50 on STAT6 was 13 nM. The compound also registered an IC50 in experiment [1] (10 ng/mL IL13, 48 hours) of 48 nM.

As for `COCC1(N)CCN(C(=O)Nc2ccc(CNC(=O)c3nn(C(C)C)c4c3CN(c3ccc(C(=O)N(C)C)cc3)C[C@@H]4C)cc2)CC1` [Example 638, (S)-N-(4-(4-amino-4-(methoxymethyl)piperidine-1-carboxamido)benzyl)-5-(4-(dimethylcarbamoyl)phenyl)-1-isopropyl-7-methyl-4,5,6,7-tetrahydro-1H-pyrazolo[4,3-c]pyridine-3-carboxamide], at STAT6, the EC50 turned out to be 1 nM. In addition, in experiment [1] (10 ng/mL IL13, 48 hours), the IC50 amounted to 4 nM.

Turning to `COCC1(N)CCN(C(=O)Nc2ccc(CNC(=O)c3nn(C(C)C)c4c3CN(c3ccc(C(=O)N(C)C)cc3)C[C@@H]4C)cc2F)CC1` [Example 639, (S)-N-(4-(4-amino-4-(methoxymethyl)piperidine-1-carboxamido)-3-fluorobenzyl)-5-(4-(dimethylcarbamoyl)phenyl)-1-isopropyl-7-methyl-4,5,6,7-tetrahydro-1H-pyrazolo[4,3-c]pyridine-3-carboxamide], the EC50 on STAT6 came to 1 nM. In addition, in experiment [1] (10 ng/mL IL13, 48 hours), the IC50 was 8 nM.

As for `CC(C)n1nc(C(=O)NCc2ccc(NC(=O)N3CCN(C)CC3)cc2)c2c1[C@@H](C)CN(c1ccc(-c3ncnn3C3CC3)cn1)C2` [Example 649, (S)-5-(5-(1-cyclopropyl-1H-1,2,4-triazol-5-yl)pyridin-2-yl)-1-isopropyl-7-methyl-N-(4-(4-methylpiperazine-1-carboxamido)benzyl)-4,5,6,7-tetrahydro-1H-pyrazolo[4,3-c]pyridine-3-carboxamide], on STAT6, the EC50 is 1 nM. In addition, the IC50 in experiment [1] (10 ng/mL IL13, 48 hours) stood at 24 nM.

With `CC(C)n1nc(C(=O)NCc2ccc(NC(=O)N3CCNCC3)nc2)c2c1[C@@H](C)CN(c1ccc(C(=O)N(C)C)cc1)C2` [Example 699, (S)-5-(4-(dimethylcarbamoyl)phenyl)-1-isopropyl-7-methyl-N-((6-(piperazine-1-carboxamido)pyridin-3-yl)methyl)-4,5,6,7-tetrahydro-1H-pyrazolo[4,3-c]pyridine-3-carboxamide], the EC50 at STAT6 amounted to 4 nM. The IC50 in experiment [1] (10 ng/mL IL13, 48 hours) worked out at 27 nM.

On to `CC(C)n1nc(C(=O)NCc2ccc(NC(=O)N3CCNCC3)cn2)c2c1[C@@H](C)CN(c1ccc(C(=O)N(C)C)cc1)C2` [Example 700, (S)-5-(4-(dimethylcarbamoyl)phenyl)-1-isopropyl-7-methyl-N-((5-(piperazine-1-carboxamido)pyridin-2-yl)methyl)-4,5,6,7-tetrahydro-1H-pyrazolo[4,3-c]pyridine-3-carboxamide], for which, at STAT6, the EC50 worked out at 5 nM. In addition, in experiment [1] (10 ng/mL IL13, 48 hours), the midpoint of inhibition, the IC50, lay at 22 nM.

As for `CC(C)n1nc(C(=O)NCc2ccc(NC(=O)N(C)C)cc2)c2c1[C@@H](C)CN(c1ccc(C(=O)N3CCN(C)CC3)cc1)C2` [Example 706, (S)-N-(4-(3,3-dimethylureido)benzyl)-1-isopropyl-7-methyl-5-(4-(4-methylpiperazine-1-carbonyl)phenyl)-4,5,6,7-tetrahydro-1H-pyrazolo[4,3-c]pyridine-3-carboxamide], the EC50 on STAT6 is 27 nM. Moreover, the IC50 in experiment [1] (IL-13 10 ng/mL) was determined as 191 nM.

On to `COCCC1(N)CCN(C(=O)Nc2ccc(CNC(=O)c3nn(C(C)C)c4c3CN(c3ccc(C(=O)N(C)C)cc3)C[C@@H]4C)cc2)CC1` [Example 708, (S)-N-(4-(4-amino-4-(2-methoxyethyl)piperidine-1-carboxamido)benzyl)-5-(4-(dimethylcarbamoyl)phenyl)-1-isopropyl-7-methyl-4,5,6,7-tetrahydro-1H-pyrazolo[4,3-c]pyridine-3-carboxamide], for which the EC50 on STAT6 amounted to 1 nM. Besides, half-maximal inhibition in experiment [1] (IL-13 10 ng/mL) (IC50) required 8 nM.

Regarding `CC(C)n1nc(C(=O)NCc2ccc(NC(=O)N3CCN(C)CC3)c(F)c2)c2c1[C@@H](C)CN(c1ccc(C(=O)N3Cc4cccnc4C3)cc1)C2` [Example 711, (S)-5-(4-(6,7-dihydro-5H-pyrrolo[3,4-b]pyridine-6-carbonyl)phenyl)-N-(3-fluoro-4-(4-methylpiperazine-1-carboxamido)benzyl)-1-isopropyl-7-methyl-4,5,6,7-tetrahydro-1H-pyrazolo[4,3-c]pyridine-3-carboxamide], on STAT6, the EC50 amounted to 0.5 nM. Further, the midpoint of inhibition in experiment [1] (IL-13 10 ng/mL), the IC50, lay at 18 nM.

With `CC(C)n1nc(C(=O)NCc2ccc(NC(=O)N3CCN(C)CC3)cc2Cl)c2c1[C@@H](C)CN(c1ccc(C(=O)N(C)C)cc1)C2` [Example 712, (S)-N-(2-chloro-4-(4-methylpiperazine-1-carboxamido)benzyl)-5-(4-(dimethylcarbamoyl)phenyl)-1-isopropyl-7-methyl-4,5,6,7-tetrahydro-1H-pyrazolo[4,3-c]pyridine-3-carboxamide], the EC50 on STAT6 was found to be 3 nM. The same compound gave an IC50 in experiment [1] (IL-13 10 ng/mL) of 64 nM.

Take `CC(C)n1nc(C(=O)NCc2ccc(NC(=O)N3CCN(C)CC3)c(F)c2)c2c1[C@@H](C)CN(c1ccc(-n3ccccc3=O)cc1)C2` [Example 715, (S)-N-(3-fluoro-4-(4-methylpiperazine-1-carboxamido)benzyl)-1-isopropyl-7-methyl-5-(4-(2-oxopyridin-1(2H)-yl)phenyl)-4,5,6,7-tetrahydro-1H-pyrazolo[4,3-c]pyridine-3-carboxamide]: the concentration giving a half-maximal response (EC50) at STAT6 was 5 nM. In experiment [1] (IL-13 10 ng/mL), this compound registered an IC50 of 68 nM.

`CCn1nc(C(=O)NCc2ccc(NC(=O)N3CC(NC)C3)c(F)c2)c2c1[C@@H](C)CN(c1ccc(C(=O)N(C)C)cc1)C2` [Example 716, (S)-5-(4-(dimethylcarbamoyl)phenyl)-1-ethyl-N-(3-fluoro-4-(3-(methylamino)azetidine-1-carboxamido)benzyl)-7-methyl-4,5,6,7-tetrahydro-1H-pyrazolo[4,3-c]pyridine-3-carboxamide]: the EC50 at STAT6 is 3 nM. In experiment [1] (IL-13 10 ng/mL), this compound yielded a half-maximal inhibitory concentration (IC50) of 25 nM.

In the case of `CC(C)n1nc(C(=O)NCc2ccc(NC(=O)N3CCN(C)CC3)c(Cl)c2)c2c1[C@@H](C)CN(c1ccc(C(=O)N(C)C)cc1)C2` [Example 717, (S)-N-(3-chloro-4-(4-methylpiperazine-1-carboxamido)benzyl)-5-(4-(dimethylcarbamoyl)phenyl)-1-isopropyl-7-methyl-4,5,6,7-tetrahydro-1H-pyrazolo[4,3-c]pyridine-3-carboxamide], the EC50 on STAT6 amounted to 3 nM. The same compound displayed an IC50 in experiment [1] (IL-13 10 ng/mL) of 29 nM.

As to `CC(C)n1nc(C(=O)NCc2ccc(NC(=O)N3CCN(C)CC3)cc2F)c2c1[C@@H](C)CN(c1ccc(C(=O)N(C)C)cc1)C2` [Example 718, (S)-5-(4-(dimethylcarbamoyl)phenyl)-N-(2-fluoro-4-(4-methylpiperazine-1-carboxamido)benzyl)-1-isopropyl-7-methyl-4,5,6,7-tetrahydro-1H-pyrazolo[4,3-c]pyridine-3-carboxamide], the EC50 at STAT6 is 1 nM. Also, half-maximal inhibition in experiment [1] (IL-13 10 ng/mL) (IC50) required 18 nM.

Consider `CC(C)n1nc(C(=O)NCc2ccc(C(N)=O)cc2)c2c1[C@@H](C)CN(c1ncc(-c3nccn3C)cn1)C2` [Example 719, (S)-N-(4-carbamoylbenzyl)-1-isopropyl-7-methyl-5-(5-(1-methyl-1H-imidazol-2-yl)pyrimidin-2-yl)-4,5,6,7-tetrahydro-1H-pyrazolo[4,3-c]pyridine-3-carboxamide], for which the EC50 on STAT6 was 1000 nM. Besides, in experiment [1] (IL-13 10 ng/mL), the IC50 worked out at 3690 nM.

`CC(C)n1nc(C(=O)NCc2ccc(NC(=O)C3CCN(C)CC3)c(F)c2)c2c1[C@@H](C)CN(c1ccc(C(=O)N(C)C)cc1)C2` [Example 721, (S)-5-(4-(dimethylcarbamoyl)phenyl)-N-(3-fluoro-4-(1-methylpiperidine-4-carboxamido)benzyl)-1-isopropyl-7-methyl-4,5,6,7-tetrahydro-1H-pyrazolo[4,3-c]pyridine-3-carboxamide]: the half-maximal effective concentration (EC50) at STAT6 came out at 12 nM. The compound further came in with an IC50 in experiment [1] (IL-13 10 ng/mL) of 102 nM.
